Experimental data reported in PubChem BioAssay (NCI).
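In this assay, cells in 96-well plates receive the compound at five concentrations for 48 hours. Endpoints are linearly interpolated between the surrounding concentrations. Abbreviation: GI50, concentration required for 50% inhibition of growth. Definition used: TGI = concentration required for complete inhibition of growth.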

Assays:
Assay in all cases: DTP human tumour cell line panel, 48 h
SNB-19 CNS = test system: SNB-19 CNS
OVCAR-8 ovarian = test system: OVCAR-8 ovarian
SK-MEL-2 melanoma = test system: SK-MEL-2 melanoma
SN12C renal = test system: SN12C renal
OVCAR-5 ovarian = test system: OVCAR-5 ovarian
COLO 205 colon = test system: COLO 205 colon
SF-539 CNS = test system: SF-539 CNS
EKVX NSCLC = test system: EKVX NSCLC
NCI/ADR-RES ovarian = test system: NCI/ADR-RES ovarian
U251 CNS = test system: U251 CNS

| SMILES | GI50 (SNB-19 CNS) [µM] | TGI (SNB-19 CNS) [µM] | GI50 (OVCAR-8 ovarian) [µM] | TGI (OVCAR-8 ovarian) [µM] | GI50 (SK-MEL-2 melanoma) [µM] | TGI (SK-MEL-2 melanoma) [µM] | GI50 (SN12C renal) [µM] | TGI (SN12C renal) [µM] | GI50 (OVCAR-5 ovarian) [µM] | TGI (OVCAR-5 ovarian) [µM] | GI50 (COLO 205 colon) [µM] | TGI (COLO 205 colon) [µM] | GI50 (SF-539 CNS) [µM] | TGI (SF-539 CNS) [µM] | GI50 (EKVX NSCLC) [µM] | TGI (EKVX NSCLC) [µM] | GI50 (NCI/ADR-RES ovarian) [µM] | TGI (NCI/ADR-RES ovarian) [µM] | GI50 (U251 CNS) [µM] | TGI (U251 CNS) [µM] |
| --- | --- | --- | --- | --- | --- | --- | --- | --- | --- | --- | --- | --- | --- | --- | --- | --- | --- | --- | --- | --- |
| Cc1ccc(-c2cc(-c3ccc(C)cc3)nc(N3CCN(CCNc4ccnc5cc(Cl)ccc45)CC3)n2)cc1 | 6.51 | 15 | 2.17 | 9.65 | 7.89 | 20.3 | 4.71 | 14.7 | 3.84 | 17.6 | 1.71 | 8.76 | 1.68 | 5.84 | 5.65 | 20 | 2.53 | 11.1 | 1.43 | 5.39 |
| CCOc1cc2c(=O)oc3c(OC)ccc4ccc(c1OC)c2c43 |  | > 100 |  | 79.3 |  | > 100 |  | > 100 |  | > 100 |  | > 100 |  | > 100 |  | > 100 |  | > 100 |  | > 100 |
| O=C(Cn1c(C(=O)c2ccc(Cl)cc2)nc(-c2ccccc2)c1-c1ccccc1)c1ccc(Cl)cc1 | > 100 | > 100 | > 100 | > 100 | > 100 | > 100 | > 100 | > 100 | > 100 | > 100 | > 100 | > 100 | > 100 | > 100 | > 100 | > 100 | > 100 | > 100 | > 100 | > 100 |
| Nc1nc(-c2ccc(Cl)cc2)cc(-c2ccc(Cl)cc2)c1-c1nc2ccccc2o1 | 19.6 | 41.4 | 18.4 | 36.3 | 16.6 | 33.4 | 12.4 | 26.1 | 20.7 | 39.1 | 21 | 39.5 | 19.9 | 35.7 | 16.3 | 31.4 | 14.5 | 30.9 | 18.5 | 36 |
| O=c1c2c(=NCCN3CCCC3)cc3c(=O)n(CCCN4CCOCC4)c(=O)c4ccc(c(O)n1CCCN1CCOCC1)c2c4-3 | 0.168 | 2.09 | 0.1 | > 32.8 | 0.239 | 0.874 | 0.138 | 4.54 | 0.113 | 1.21 | 0.165 | 0.423 | 0.345 | 1.43 | 0.153 | 0.427 | 0.166 | 12 | 0.11 | 1.95 |
| OCCn1cc(-c2cnc3nnn(Cc4ccc5ncccc5c4)c3n2)cn1 | > 100 | > 100 | > 100 | > 100 | > 76.2 | > 100 | > 100 | > 100 | > 100 | > 100 | > 100 | > 100 | > 100 | > 100 | > 100 | > 100 | > 100 | > 100 | > 100 | > 100 |
